The test addresses T1, recombinant human cathepsin K (Homo sapiens, UniProt P43235).
T1 sequence (P43235 115-329): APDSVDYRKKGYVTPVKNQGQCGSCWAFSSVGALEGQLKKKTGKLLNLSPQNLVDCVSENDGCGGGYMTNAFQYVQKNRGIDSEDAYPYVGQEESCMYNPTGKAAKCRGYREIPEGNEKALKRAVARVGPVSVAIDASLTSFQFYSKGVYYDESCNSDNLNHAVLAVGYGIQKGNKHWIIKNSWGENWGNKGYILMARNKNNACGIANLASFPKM
The test is described as follows: In vitro inhibition of recombinant human cathepsin K (Z-Phe-Arg-AMCA fluorescence assay). It is filed as biochemical. The note with it: recombinant human cathepsin K 0.16 nM, Z-Phe-Arg-AMCA substrate, pH 7.0, 30 min preincubation, 30 min incubation, ambient temperature. The method, then: The In Vitro assay is Carried out as Follows:
The assay is performed in 96 well microtiter plates at ambient temperature using recombinant human cathepsin K. Inhibition of cathepsin K is assayed at a constant enzyme (0.16 nM) and substrate concentration ([…] Z-Phe-Arg-AMCA—Peptide Institute Inc. Osaka, Japan) in 100 mM sodium phosphate buffer, pH 7.0, containing 2 mM dithiothreitol 20 mM Tween 80 and 1 mM EDTA. Cathepsin K is preincubated with the inhibitors for 30 min, and the reaction is initiated by the addition of substrate. After 30 min incubation the reaction is stopped by the addition of E-64 (2 mM), and fluorescence intensity is read on a multi-well plate reader at excitation and emission wavelengths of 360 and 460 nm, respectively. […] Thus for example, the compounds of Examples 6-15 and 7-45 have IC50s for inhibition of human cathepsin K of 1 nM and 0.6 nM respectively.

As usually defined, the IC50 is the concentration at which inhibition is half-maximal. For the compound `Cc1ccc(N2CCN(Cc3cc4cnc(C#N)nc4n3CC(C)(C)C)CC2)cc1` [Example 6-15], the IC50 was 1000 pM.
To `CC(C)(C)Cn1c(CN2CCC3(CC2)NC(=O)NC3=O)cc2cnc(C#N)nc21` [Example 7-45] belongs 600 pM.

The record behind these values is patent US7452886B2, “Pyrrolo pyrimidines as agents for the inhibition of cystein proteases” (Novartis AG, priority 2001, dated 2008).
